From patent US11407811B2, “Fusion protein, preparation method therefor and use thereof” (JIANGSU RONGTAI BIOTECH CO., LTD., priority 2017, dated 2022) come the findings set out here.

Assay [1] concerns angiogenesis of chicken embryo chorioallantoic membrane. Briefly: Chicken embryo chorioallantoic membrane (CAM) angiogenesis assay. It counts as in vivo. As to conditions: 10 μg (positive control), CAM, 72 hours. An excerpt: In this study, CAM assay was used to investigate the activity of fusion protein I, protein II, protein III, protein IV, and protein V to inhibit angiogenesis in vivo. The study has shown that the biosynthesis rate of collagen reached the maximum on the 8th to 11th day of chicken embryo development, which was the most vigorous stage of angiogenesis, and the body's immune system had not yet been fully established at that time, and thus the chicken embryos developed to the 8th day was selected to be administered. […] The following steps were used.
(1) The White Leghorn chicken embryos on day 6 were cultured in a 37° C. incubator at 60%-70% humidity for two days.
(2) A 1.0 cm×1.0 cm window was drilled above the chicken embryo air sac, and the inner membrane was torn off with forceps to expose the chorioallantoic membrane. Lens paper having a diameter of 5 mm was used as a loading carrier, and was placed on the chorioallantoic membrane of the chicken embryo air sac. Filter paper with PBS was used as a blank group, and the administration group was added with different doses of fusion protein.
(3) The chicken embryo air sac was sealed with a sterile transparent tape, and after culturing at 37° C. for 72 hours, the chicken embryo air sac was opened, and a fixative (formaldehyde:acetone=1:1) was added for fixation for 15 minutes. The chorioallantoic membrane to which the lens paper was adhered was taken out, the distribution of the new blood vessels was observed, and the new blood vessels were counted and photographed. Five replicates were set for each dose and the results were statistically analyzed.

For assay [2], the system named is IL-1β production by mouse peritoneal macrophages. Briefly: IL-1β production by mouse peritoneal macrophages (ELISA). It is filed as cell-based. As to conditions: dose 20 μg/mL. As to the method: (1) IL-1β production: mice were intraperitoneally injected with 1 mL of broth medium containing 6% starch, and three days later, the mouse peritoneal macrophages were aseptically taken, washed twice with a 1640 medium, and the cell concentration was adjusted to 2×10^6 cells/mL, inoculated into a 24-well culture plate at 1 mL/well, incubated for 3 h in a cell incubator, and shaken once every 30 min, so that the cells were allowed to adhere sufficiently. Then, the cells were washed twice with a culture liquid to remove un-adhered cells. […] The supernatant was taken as a sample for testing activity of IL-1β.
(2) Determination of IL-1β content: the detection was performed by using mouse IL-1β enzyme-linked immunosorbent assay kit from R&D company. According to the instructions of the kit, the procedures were as follows: the reaction well for the test samples and different concentrations of standards were sealed with sealing tapes, respectively, incubation was performed at 37° C. for 90 min; the plate was washed four times; a biotinylated antibody working solution (100 μL/well) was added, the reaction well was sealed with sealing tapes, and incubation was performed at 37° C. for 60 min; the plate was washed four times; an enzyme conjugate working solution (100 μL/well) was added, the reaction well was sealed with sealing tapes, incubation was performed at 37° C. for 30 min; the plate was washed four times; a developer (100 μL/well) was added, incubation was performed at 37° C. for 10 to 20 min, a stop solution (100 μL/well) was added and mixed and the OD450 value was measured.
Background: ELISA stands for enzyme-linked immunosorbent assay.

The test system of assay [3] is toe swelling in rat induced by carrageenan. Briefly: Acute inflammation of toe swelling in rat induced by carrageenan. As to conditions: 10 mg/kg (positive control), rat foot. It counts as in vivo. How it is done:
80 SD rats were randomly divided into 8 groups with 10 mice for each group. […] The drug was administered once by injection, and the model group was given an equal volume of physiological saline and fed normally. On the third day, 0.1 mL of 1% carrageenan was injected subcutaneously into the right hind toes of the rats to induce inflammation. The foot volume was measured at 1 h, 3 h, 5 h, and 7 h after inflammation. The swelling degree of the foot was calculated according to the following formula: the swelling degree of the foot (mL)=the volume of the foot after inflammation—the volume before inflammation. The number of milliliters of spilled liquid was recorded (method: the protruding point of the right joint was circled with a ballpoint pen and used as a measurement mark, and the right hind feet of the rat were sequentially placed in the volume measuring device, so that the hind limbs were exposed outside the cylinder, and the depth of the immersion was limited to the overlap of the circle and the liquid level. After the foot entered the liquid, the liquid level was raised, and the volume of the spilled liquid was the volume of the right hind foot of the rat, and the normal volume of the right hind foot of each rat is sequentially determined).

The test system of assay [4] is peritoneal capillary permeability in mice. Briefly: Peritoneal capillary permeability in mice (HAc, Evans blue). It counts as in vivo. As to conditions: mice, dose 10 mg/kg. How it is done: The drug was administered once by injection (EDSM needed to be administered twice a day), and the blank model group was given an equal volume of physiological saline and fed normally. On the 5th day, a 5 g/L Evans blue physiological saline solution was injected into the tail vein at […], followed by intraperitoneal injection ([…]) of a HAc solution (6 mL/L) to induce inflammation. After 20 min, the mice were sacrificed by cervical dislocation. 5 mL of physiological saline was intraperitoneally injected, the abdomen was gently rubbed for 2 min, the abdominal cavity was cut, a peritoneal washing solution was collected and centrifuged at 4000 rpm for 10 min, 1 mL of supernatant was taken, and 3 mL of physiological saline was added to obtain 4 mL of dilution. The absorbance OD value of the dilution was measured by an ultraviolet spectrophotometer at a wavelength of 590 nm, and the amount of pigment exudation was expressed by the OD590 nm value, and the peritoneal capillary permeability in mice was examined.

For assay [5], the system named is mouse spleen lymphocytes. Briefly: Proliferation of mouse spleen lymphocytes (ConA, MTT). It is filed as cell-based. As to conditions: dose 20 μg/mL. As to the method: Tris-NH4Cl was used to break the red blood cells, which were allowed to stand in an ice water bath for 4 min and centrifuged (1000 rpm, 5 min), the supernatant was discarded, and the cells were washed twice with sterile PBS.
The cells were statically cultured in a cell incubator at 37° C. for 48 h. After the completion of the culture, 20 μL of MTT was added to each well, and the culture was continued for 4 h. Finally, all the solutions in each well were discarded, 100 μL of DMSO was added to each well, and the mixture was shaken and detected by a microplate reader for OD value at 570 nm. 5 parallels were preformed for per well.

For the compound “Avastin: positive control group in HRCEC and CAM assays [reference compound]”, in assay [1], the Blood vessel number amounted to 57 ± 16.
Turning to `C[C@@H]1C[C@H]2[C@@H]3CCC4=CC(=O)C=C[C@]4(C)[C@@]3(F)[C@@H](O)C[C@]2(C)[C@@]1(O)C(=O)CO` [Dex, dexamethasone, reference compound], in assay [2], the “IL-1β” value worked out at 310.25 ± 20.32 pg/mL and the “PI (%)” value is reported as 63.36%. Moreover, in assay [3] (1 h after carrageenan), the “Swelling degree 1 h” value was determined as 0.21 ± 0.11 mL. In assay [3] (3 h after carrageenan), the “Swelling degree 3 h” value was determined as 0.23 ± 0.04 mL. The “Swelling degree 5 h” value in assay [3] (5 h after carrageenan) is 0.25 ± 0.09 mL. Besides, the “Swelling degree 7 h” value in assay [3] (7 h after carrageenan) was determined as 0.27 ± 0.12 mL. Also, in assay [4], the “Exudation rate (OD590)” value was determined as 0.22 ± 0.03. For the same compound, in assay [5], the “A570 nm/A630 nm” value worked out at 0.3401 ± 0.1131 and the “PI (%)” value came out at 41.19%.
